In patent US9102899B2, “Organic compounds” (Givaudan SA, priority 2004, dated 2015):

Columns and labels:
[1] = Odour threshold by gas chromatograph with sniff port, panel of trained individuals; details: GC sniff port; absolute amount of compound delivered at the sniff port; same panel, couples evaluated on the same day
Protocol: According to standard procedures known to the person skilled in the art, threshold values for volatile perfumery compounds were determined on a gas chromatograph equipped with a sniff port by a panel of trained individuals. The last concentration smelled by each individual was recorded as the individual threshold value expressed in ng (absolute amount of compound delivered at the sniff port). All compounds have been evaluated by the same panel. The couples (saturated and unsaturated compound) were evaluated on the same day.

SMILES	Odour threshold [1] [ng]	melting point [°C]
CCCCCCC(C#N)c1ccccc1 (centres unmarked) [Comparison Example 2A, reference compound]	15	
CC(C)=C/C=C(/C#N)c1ccccc1 [Example 6, (2E)-5-Methyl-2-phenyl-hexa-2,4-diene nitrile]		66 to 67
CCC(C)=C(C#N)c1ccccc1 (racemic) [Example 3, 3-Methyl-2-phenyl-pent-2-ene nitrile]	3	
CCCCCC=C(C#N)c1ccccc1 (stereo in doubt) [Example 2, (2E)-2-Phenyl-oct-2-ene nitrile]	2	
CCC(C)C(C#N)c1ccccc1 (centres unmarked) [Comparison Example 3A, reference compound]	26	
